According to ChEMBL document CHEMBL3865852, “PAR2 Modulators Derived from GB88” (ACS Med Chem Lett, 2016):
Active and inactive are the calls of the source. No cut-off for these calls is given here. Where a SMILES comes first, the peptide text is derived from it.

Experiments:
[1] = target: Proteinase-activated receptor 2 (Homo sapiens) (UniProt P55085); assay: Agonist activity at PAR2 in human HT-29 cells assessed as increase in intracellular calcium release at 10 uM incubated for 30 mins measured for 60 secs by Fluo-3 AM dye based FLIPR assay relative to 2f-LIGRLO-NH2; type: functional, cell-based
[2] = target: Proteinase-activated receptor 2 (Homo sapiens) (UniProt P55085); assay: Antagonist activity at PAR2 in human HT-29 cells assessed as inhibition of 2f-LIGRLO-NH2-stimulated intracellular calcium release at 10 uM preincubated for 30 mins followed by 2f-LIGRLO-NH2 stimulation measured for 60 secs by Fluo-3 AM dye based FLIPR assay relative to control; type: functional, cell-based
[3] = Half life in Wistar rat plasma at 10 uM by LC/MS/MS analysis; type: ADME, cell-free
[4] = Elimination half life in Wistar rat liver homogenate at 10 uM by LC/MS/MS analysis; type: ADME, tissue-based; conditions: read-out: beta t1/2
[5] = target: T1, Proteinase-activated receptor 2 (Homo sapiens, UniProt P55085); assay: Agonist activity at PAR2 in human HT-29 cells assessed as increase in intracellular calcium release incubated for 30 mins measured for 60 secs by Fluo-3 AM dye based FLIPR assay relative to 2f-LIGRLO-NH2; type: functional, cell-based
T1 sequence (P55085 whole entry): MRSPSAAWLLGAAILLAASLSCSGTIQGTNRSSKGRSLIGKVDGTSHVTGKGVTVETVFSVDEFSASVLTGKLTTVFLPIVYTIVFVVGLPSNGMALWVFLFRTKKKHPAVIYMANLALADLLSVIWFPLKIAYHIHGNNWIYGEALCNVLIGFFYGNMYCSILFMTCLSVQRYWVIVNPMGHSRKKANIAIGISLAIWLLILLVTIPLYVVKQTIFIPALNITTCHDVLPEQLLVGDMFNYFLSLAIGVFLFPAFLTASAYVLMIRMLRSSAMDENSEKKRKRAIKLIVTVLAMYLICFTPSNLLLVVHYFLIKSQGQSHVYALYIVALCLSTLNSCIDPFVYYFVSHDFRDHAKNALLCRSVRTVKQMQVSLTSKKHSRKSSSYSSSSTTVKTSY

[6] = Stability in Wistar rat plasma at 10 uM measured up to 3 hrs by LC/MS/MS analysis; type: ADME, cell-free; conditions: read-out: Stability
[7] = Time at which maximum plasma concentration stays above 2 times in vitro PAR2 IC50 in Wistar rat at 10 mg/kg, po administered via gavage; type: ADME, organism-based; conditions: in vivo
[8] = AUC (0 to 6 hrs) in Wistar rat at 10 mg/kg, po administered via gavage; type: ADME, organism-based; parameters: time < 6 hr, dose 10 mg/kg, route oral; conditions: in vivo
Rattus norvegicus = assay: Antiinflammatory activity in Wistar rat acute paw edema model assessed as inhibition of 2f-LIGRLO-NH2-induced […] swelling at 10 mg/kg administered via oral gavage for 2 hrs followed by 2f-LIGRLO-NH2 addition measured up to 3 hrs; type: functional, organism-based
[9] = target: T1, Proteinase-activated receptor 2; assay: Antagonist activity at PAR2 in human HT-29 cells assessed as inhibition of 2f-LIGRLO-NH2-stimulated intracellular calcium release preincubated for 30 mins followed by 2f-LIGRLO-NH2 stimulation measured for 60 sec by Fluo-3 AM dye based FLIPR assay; type: functional, cell-based
[10] = Solubility of compound; type: physicochemical
[11] = target: T1, Proteinase-activated receptor 2; assay: Antagonist activity at PAR2 in human HT-29 cells assessed as inhibition of endogenous trypsin-stimulated intracellular calcium release by Fluo-3 AM dye based FLIPR assay; type: functional, cell-based

Row | SMILES | Activity [1] | inhibition [2] | other results
1 | NC(=O)C[C@H](NC(=O)[C@H](CC1CCCCC1)NC(=O)c1ccno1)C(=O)N1CCC2(C=Cc3ccccc32)CC1 | 53 to 81% |  | 
2 | CC(C)(C)[C@H](NC(=O)[C@H](CC1CCCCC1)NC(=O)c1ccno1)C(=O)N1CCC2(C=Cc3ccccc32)CC1 |  | 10 to 16% | 
3 | CC[C@H](C)[C@H](NC(=O)[C@H](CC(C)C)NC(=O)[C@@H](N)CO)C(=O)NCC(=O)N[C@@H](CCCNC(=N)N)C(=O)N[C@@H](CC(C)C)C(N)=O (H-SLIGRL-NH2) |  |  | half-life at 10 µM [3]: 20 min; half-life at 10 µM [4]: 15 min
4 | CC[C@H](C)[C@H](NC(=O)[C@H](CC1CCCCC1)NC(=O)c1ccno1)C(=O)N1CCC2(CC1)OC(=O)c1ccccc12 | 62 to 70% |  | EC50 [5]: 700 to 1800 nM
5 | CC[C@H](C)[C@H](NC(=O)[C@H](CC1CCCCC1)NC(=O)c1ccno1)C(=O)N1CCC(NC(C)=O)(c2ccccc2)CC1 | 81% |  | 
6 | CC[C@H](C)[C@H](NC(=O)[C@H](CC1CCCCC1)NC(=O)c1ccon1)C(=O)N1CCC2(C=Cc3ccccc32)CC1 | 21% | 27% | 
7 | CC[C@H](C)[C@H](NC(=O)[C@H](CC1CCCCC1)NC(=O)c1ccno1)C(=O)N1CCC(c2ccc(Cl)cc2)CC1 |  | 43 to 69% | 
8 | CC[C@H](C)[C@H](NC(=O)[C@H](CC1CCCCC1)NC(=O)c1ccno1)C(=O)N1CCC(c2ccc(OC)cc2)CC1 |  | 43 to 69% | 
9 | CC[C@H](C)[C@H](NC(=O)[C@H](CC1CCCCC1)NC(=O)c1cscn1)C(=O)N1CCC2(C=Cc3ccccc32)CC1 |  | 70% | 
10 | CC[C@H](C)[C@H](NC(=O)[C@H](CC1CCCCC1)NC(=O)c1ccno1)C(=O)N1CCC(c2ccccc2)CC1 |  | 93% | remaining at 3 h, 10 µM [6]: > 75%; Time [7]: 2 to 3 h; AUC(0-t) at 6 h [8]: 1960 ng·h/mL; half-life at 10 µM [4]: 30 min; inhibition (Rattus norvegicus): Active
11 | CC[C@H](C)[C@H](NC(=O)[C@H](CC1CCCCC1)NC(=O)c1ccno1)C(=O)N1CCC(c2ccccc2C(F)(F)F)CC1 |  | 43 to 69% | 
12 | CC[C@H](C)[C@H](NC(=O)[C@H](CC1CCCCC1)NC(=O)c1cc(CN)no1)C(=O)N1CCC2(C=Cc3ccccc32)CC1 |  | 62% | IC50 ([9]; read-out: IC50): 8900 nM; IC50 ([9]; read-out: pIC50 (converted)): 10000 nM; solubility [10]: Soluble
13 | O=C(N[C@@H](CC1CCCCC1)C(=O)N[C@@H](Cc1cnc[nH]1)C(=O)N1CCC2(C=Cc3ccccc32)CC1)c1ccno1 | 53 to 81% |  | 
14 | CC[C@H](C)[C@H](NC(=O)[C@H](CC1CCCCC1)NC(=O)c1cc(N)no1)C(=O)N1CCC2(C=Cc3ccccc32)CC1 |  | 91% | remaining at 3 h, 10 µM [6]: > 75%; solubility [10]: Soluble; half-life at 10 µM [4]: 15 min; inhibition (Rattus norvegicus): Active
15 | CC[C@H](C)[C@H](NC(=O)[C@H](CC1CCCCC1)NC(=O)c1ccno1)C(=O)N1CCC2(C=Cc3ccccc32)CC1 |  | 92% | IC50 [11]: 3600 nM; remaining at 3 h, 10 µM [6]: > 75%; IC50 ([9]; read-out: IC50): 1100 to 1700 nM; IC50 ([9]; read-out: pIC50 (converted)): 1580 nM; half-life at 10 µM [4]: 60 min
16 | CC[C@H](C)[C@H](NC(=O)[C@H](CC1CCCCC1)NC(=O)c1ccno1)C(=O)N1CCCC[C@H]1C(=O)NC(C)(C)C |  | 64% | 
17 | CO[C@H](C)[C@H](NC(=O)[C@H](CC1CCCCC1)NC(=O)c1ccno1)C(=O)N1CCC2(C=Cc3ccccc32)CC1 | 53 to 81% |  | 

Row | SMILES | Activity [1] | inhibition [2] | other results
18 | CC[C@H](C)[C@H](NC(=O)[C@H](CC1CCCCC1)NC(=O)c1cc(N)n[nH]1)C(=O)N1CCC2(C=Cc3ccccc32)CC1 | 26% |  | 
19 | CC[C@H](C)[C@H](NC(=O)[C@H](CC1CCCCC1)NC(=O)c1ccno1)C(=O)N1CCN(Cc2ccc(F)cc2)CC1 | 30 to 50% |  | 
20 | CC[C@H](C)[C@H](NC(=O)[C@H](CC1CCCCC1)NC(=O)c1ccno1)C(=O)N1CCC(c2cc(OC)ccc2OC)CC1 |  | 43 to 69% | 
21 | CC[C@H](C)[C@H](NC(=O)[C@H](CC1CCCCC1)NC(=O)c1nc[nH]n1)C(=O)N1CCC2(C=Cc3ccccc32)CC1 |  | 43% | 
22 | NCC[C@H](NC(=O)[C@H](CC1CCCCC1)NC(=O)c1ccno1)C(=O)N1CCC2(C=Cc3ccccc32)CC1 | 11% |  | 
23 | CC[C@H](C)[C@H](NC(=O)[C@H](CC1CCCCC1)NC(=O)c1ccno1)C(=O)N1CCC(O)(c2ccc(C(F)(F)F)cc2C(F)(F)F)CC1 |  | 43 to 69% | 
24 | CC[C@H](C)[C@H](NC(=O)[C@H](CC1CCCCC1)NC(=O)c1c[nH]cn1)C(=O)N1CCC2(C=Cc3ccccc32)CC1 |  | 53% | IC50 ([9]; read-out: IC50): 3100 nM; solubility [10]: Soluble
25 | CC[C@H](C)[C@H](NC(=O)[C@H](CC1CCCCC1)NC(=O)c1ccno1)C(=O)N1CCC2(CCc3ccccc3O2)CC1 |  | 77% | IC50 ([9]; read-out: IC50): 1900 nM
26 | CC[C@H](C)[C@H](NC(=O)[C@H](CC1CCCCC1)NC(=O)c1ccno1)C(=O)N1CCN(c2ccc(F)cc2)CC1 | 30 to 50% |  | 
27 | CC[C@H](C)[C@H](NC(=O)[C@H](CC1CCCCC1)NC(=O)c1ccno1)C(=O)N1CC[C@H]2CCCC[C@H]2[C@H]1C(=O)NC(C)(C)C |  | 38% | 
28 | CC[C@H](C)[C@H](NC(=O)[C@H](CC1CCCCC1)NC(=O)c1ccno1)C(=O)N1CCc2cc(OC)c(OC)cc2C1 | 65% |  | 
29 | CC[C@H](C)[C@H](NC(=O)[C@H](CC1CCCCC1)NC(=O)c1ccno1)C(=O)N1CCN(c2ccccc2)CC1 | 30 to 50% |  | 
30 | CC(C)(NC(=O)[C@H](CC1CCCCC1)NC(=O)c1ccno1)C(=O)N1CCC2(C=Cc3ccccc32)CC1 |  | 10 to 16% | 
31 | CC[C@H](C)[C@H](NC(=O)[C@H](CC1CCCCC1)NC(=O)c1ccno1)C(=O)N1CCC2(CC1)c1ccccc1C1OC12 (some centres undefined) | 65% |  | EC50 [5]: 700 to 1800 nM
32 | CC[C@H](C)[C@H](NC(=O)[C@H](CC1CCCCC1)NC(=O)c1ccno1)C(=O)N1CCC2(CC1)CC(=O)c1ccccc1O2 | 62 to 70% |  | EC50 [5]: 700 to 1800 nM
33 | O=C(N[C@@H](CC1CCCCC1)C(=O)N[C@@H](CC1CCCCC1)C(=O)N1CCC2(C=Cc3ccccc32)CC1)c1ccno1 |  | 10 to 16% | 
34 | C[C@@H](O)[C@H](NC(=O)[C@H](CC1CCCCC1)NC(=O)c1ccno1)C(=O)N1CCC2(C=Cc3ccccc32)CC1 | 53 to 81% |  | 
